Publication PMC6112376, “Comprehensive Analyses and Prioritization of Tox21 10K Chemicals Affecting Mitochondrial Function by in-Depth Mechanistic Studies” (Environmental Health Perspectives, 2018)
Where two headings read alike, the source gives them in different places.

Columns and labels:
HepG2 cells [1] = assay: ROS-Glo hydrogen peroxide (ROS) assay; assay type: cell-based, human; conditions: for EC50: read-out: ROS (HepG2) EC50
HepG2 cells [2] = assay: Intracellular ATP content (cell viability) assay; assay type: cell-based, human
HepG2 cells [3] = assay: Oxygen consumption, Seahorse XF24 analyzer; assay type: cell-based, human
[4] = test system: Caenorhabditis elegans (Bristol N2); assay: C. elegans larval development and growth assay
[5] = test system: Nrf2/ARE (ARE-bla HepG2 cells); assay: ARE β-lactamase reporter gene assay; assay type: cell-based, human
rat primary hepatocytes [6] = test system: rat primary hepatocytes
HepG2 cells [7] = assay: cells; conditions: Homo sapiens
[8] = test system: Caenorhabditis elegans strain PE255; assay: In vivo C. elegans ATP status assay
HepG2 cells [9] = conditions: read-out: MMP assays IC50 (µM) qHTS-HepG2; cited from earlier work
[10] = test system: Caenorhabditis elegans (Bristol N2); conditions: in vivo
[11] = test system: HeLa cells expressing YFP-Parkin; assay: Parkin translocation assay; assay type: cell-based, human
rat primary hepatocytes [12] = assay: MMP assay in rat primary hepatocytes
[13] = test system: Caenorhabditis elegans strain PE255; conditions: in vivo
[14] = test system: isolated rat liver mitochondria; assay: Oxygen consumption, Clark-type oxygen electrode; assay type: biochemical
hNSC = assay: MMP assay in human neural stem cells (hNSC); assay type: cell-based
[15] = test system: p53 (p53-bla HCT-116 cells); assay: p53 β-lactamase reporter gene assay; assay type: cell-based, human
HepG2 cells [16] = test system: HepG2 cells

CCOCn1c(-c2ccc(Cl)cc2)c(C#N)c(Br)c1C(F)(F)F [Chlorfenapyr]
EC50 (HepG2 cells [1]; Homo sapiens, HepG2, 2 h): 1.93 µM
IC50 (HepG2 cells [2]; Homo sapiens, HepG2, 40 h, read-out: ATP (HepG2, galactose) IC50): 7.01 µM
IC50 (HepG2 cells [2]; Homo sapiens, HepG2, 40 h, read-out: ATP (HepG2, glucose) IC50): 6.41 µM
effect on oxygen consumption rate, Seahorse (in words) (HepG2 cells [3]): effects similar to that of FCCP
larval growth effect at 0.5μM ([4]; 0.5 µM): severe larval growth arrest
minimal effective concentration ([4]; Caenorhabditis elegans, read-out: LEC EXT: lowest effect concentration for extinction, a measure of nematode size): 0.05 µM
ARE (HepG2) EC50 ([5]; 16 h incubation, mean±SD of three experiments): Inactive
MMP assays efficacy (%) Rat Hepatocytes (rat primary hepatocytes [6]): -109±23%
Rat hepatocytes (efficacy) (MMP) (rat primary hepatocytes [6]): 0.34±0.11 ( −90.8±10.1 ) %
IC50 (HepG2 cells [7]; HepG2, 1 h, read-out: HepG2 IC50 Galactose (MMP)): 1.85 µM
IC50 (HepG2 cells [7]; HepG2, 1 h, read-out: HepG2 IC50 Glucose (MMP)): 1.67 µM
IC50 (HepG2 cells [7]; HepG2, read-out: IC50 in HepG2 cells (MMP, tier-one retest)): 0.04 µM
Emax (HepG2 cells [7]; HepG2, read-out: MMP assays efficacy (%) HepG2): 109%
minimal effective concentration ([8]; Caenorhabditis elegans, read-out: LEC LUM: lowest effect concentration for luminescence, a measure of nematode ATP content): 0.25 µM
IC50 (HepG2 cells [9]): 0.07 ± 0.04 µM
inhibitory effect at (concentration) on larval growth in the C. elegans assay ([10]; Bristol N2 (wild type), Caenorhabditis elegans): 0.05 µM
Parkin recruitment [11]: Active
Parkin translocation into mitochondria (in words) ([11]; 3 h): patterns similar to antimycin A and FCCP
IC50 (rat primary hepatocytes [12]; Rattus norvegicus, Hepatocyte, 1 h, read-out: IC50 in rat primary hepatocytes (MMP, tier-one retest)): 0.07 µM
IC50 (rat primary hepatocytes [12]; Rattus norvegicus, Hepatocyte, 1 h, read-out: Rat hepatocytes IC50 (MMP)): 0.34 µM
inhibitory effect at (concentration) on ATP content in the C. elegans assay ([13]; PE255 [sur-5::luc+::gfp, rol-6(su1006)], Caenorhabditis elegans): 0.25 µM
Potential Mechanism [14]: Uncoupler at low concentrations (0.16-20 µM), and Uncoupler + inhibitor at high concentration (100 µM)
effect on mitochondrial respiration (in words) [14]: effects similar to those of FCCP
uncoupler effect at (concentration) in the oxygen consumption assay [14]: 0.16 µM
I-ADP, % of control (O2 consumption rate) ([14]; 0.032 µM): 99 (43.1) % of control
I-sub, % of control (O2 consumption rate) ([14]; 0.032 µM): 116 (15.2) % of control
II-ADP, % of control (O2 consumption rate) ([14]; 0.032 µM): 99 (67.2) % of control
II-sub, % of control (O2 consumption rate) ([14]; 0.032 µM): 108 (22.5) % of control
I-ADP, % of control (O2 consumption rate) ([14]; 0.16 µM): 96 (41.8) % of control
I-sub, % of control (O2 consumption rate) ([14]; 0.16 µM): 131 (17.1) % of control
II-ADP, % of control (O2 consumption rate) ([14]; 0.16 µM): 112 (75.7) % of control
II-sub, % of control (O2 consumption rate) ([14]; 0.16 µM): 119 (24.9) % of control
I-ADP, % of control (O2 consumption rate) ([14]; 0.8 µM): 120 (52.1) % of control
I-sub, % of control (O2 consumption rate) ([14]; 0.8 µM): 242 (31.7) % of control
II-ADP, % of control (O2 consumption rate) ([14]; 0.8 µM): 106 (71.8) % of control
II-sub, % of control (O2 consumption rate) ([14]; 0.8 µM): 180 (37.6) % of control
I-ADP, % of control (O2 consumption rate) ([14]; 4 µM): 177 (76.8) % of control
I-sub, % of control (O2 consumption rate) ([14]; 4 µM): 544 (71.3) % of control
II-ADP, % of control (O2 consumption rate) ([14]; 4 µM): 124 (84.2) % of control
II-sub, % of control (O2 consumption rate) ([14]; 4 µM): 359 (75.1) % of control
I-ADP, % of control (O2 consumption rate) ([14]; 20 µM): 91 (39.4) % of control
I-sub, % of control (O2 consumption rate) ([14]; 20 µM): 324 (42.4) % of control
II-ADP, % of control (O2 consumption rate) ([14]; 20 µM): 80 (54.0) % of control
II-sub, % of control (O2 consumption rate) ([14]; 20 µM): 281 (58.7) % of control
I-ADP, % of control (O2 consumption rate) ([14]; 100 µM): 54 (28.6) % of control
I-sub, % of control (O2 consumption rate) ([14]; 100 µM): 277 (37.3) % of control
II-ADP, % of control (O2 consumption rate) ([14]; 100 µM): 35 (23.6) % of control
II-sub, % of control (O2 consumption rate) ([14]; 100 µM): 139 (30.2) % of control

N#CC(C#N)=NNc1ccc(OC(F)(F)F)cc1 [FCCP, carbonyl cyamide 4-(trifluoromethoxy)phenylhydrazone, reference compound]
ROS (HepG2) (efficacy) (HepG2 cells [1]): 2.49±0.45 ( 35.9±5.66 ) %
EC50 (HepG2 cells [1]): 2.49 µM
hNSC (efficacy) (MMP) (hNSC): 0.27±0.08 ( −94.2±2.36 ) %
IC50 (hNSC; read-out: hNSC IC50 (MMP)): 0.27 µM
ATP (HepG2, galactose) (efficacy) (HepG2 cells [2]): 4.25±0.97 ( −91.9±3.75 ) %
ATP (HepG2, glucose) (efficacy) (HepG2 cells [2]): 2.90±0.72 ( −90.1±9.46 ) %
IC50 (HepG2 cells [2]; read-out: ATP (HepG2, galactose) IC50): 4.25 µM
IC50 (HepG2 cells [2]; read-out: ATP (HepG2, glucose) IC50): 2.9 µM
Activity in oxygen consumption (HepG2 cells [3]): Uncoupler+inhibitor
LEC EXT: lowest effect concentration for extinction, a measure of nematode size ([4]; in vivo): 2.5 µM
ARE (HepG2) EC50 [5]: Inactive
Rat hepatocytes (efficacy) (MMP) (rat primary hepatocytes [6]): 0.35±0.06 ( −95.4±4.65 ) %
LEC LUM: lowest effect concentration for luminescence, a measure of nematode ATP content ([8]; in vivo): 5 µM
p53 (HCT-116) EC50 [15]: Inactive
LEC (lowest effect concentration), larval growth assay [10]: < 10 µM
Parkin recruitment [11]: Active
Parkin translocation into mitochondria (in words) [11]: significantly increased Parkin translocation into mitochondria
IC50 (rat primary hepatocytes [12]; read-out: Rat hepatocytes IC50 (MMP)): 0.35 µM
LEC (lowest effect concentration), ATP assay [13]: < 10 µM
HepG2 (efficacy) Galactose (MMP) (HepG2 cells [16]): 1.12±0.33 ( −94.6±1.13 ) %
HepG2 (efficacy) Glucose (MMP) (HepG2 cells [16]): 1.05±0.38 ( −95.8±2.94 ) %
IC50 (HepG2 cells [16]; read-out: HepG2 IC50 Galactose (MMP)): 1.12 µM
IC50 (HepG2 cells [16]; read-out: HepG2 IC50 Glucose (MMP)): 1.05 µM
Potential Mechanism [14]: Uncoupler at lower concentrations (0.032-0.16 µM), and Uncoupler + inhibitor at high concentrations (0.8 - 100 µM)
concentration at which RCR began to decrease [14]: 32 nM
concentration at which RCR reached unity (complete uncoupling) [14]: 4 µM
glutamate/malate-driven state 4 respiration, maximal increase over the baseline level [14]: approximately 4 fold
succinate-driven state 4 respiration, maximal response over the baseline level [14]: 2.6 fold
uncoupler effect at (concentration) in the oxygen consumption assay [14]: 0.032 µM
I-ADP, % of control (O2 consumption rate) ([14]; 0.0064 µM): 94 (46.6) % of control
I-sub, % of control (O2 consumption rate) ([14]; 0.0064 µM): 108 (14.9) % of control
II-ADP, % of control (O2 consumption rate) ([14]; 0.0064 µM): 96 (85.4) % of control
II-sub, % of control (O2 consumption rate) ([14]; 0.0064 µM): 90 (24.4) % of control
I-ADP, % of control (O2 consumption rate) ([14]; 0.032 µM): 100 (49.4) % of control
I-sub, % of control (O2 consumption rate) ([14]; 0.032 µM): 131 (18.2) % of control
II-ADP, % of control (O2 consumption rate) ([14]; 0.032 µM): 96 (85.4) % of control
II-sub, % of control (O2 consumption rate) ([14]; 0.032 µM): 126 (34.2) % of control
I-ADP, % of control (O2 consumption rate) ([14]; 0.16 µM): 115 (56.7) % of control
I-sub, % of control (O2 consumption rate) ([14]; 0.16 µM): 251 (34.8) % of control
II-ADP, % of control (O2 consumption rate) ([14]; 0.16 µM): 97 (86.6) % of control
II-sub, % of control (O2 consumption rate) ([14]; 0.16 µM): 260 (70.2) % of control
I-ADP, % of control (O2 consumption rate) ([14]; 0.8 µM): 125 (61.6) % of control
I-sub, % of control (O2 consumption rate) ([14]; 0.8 µM): 386 (53.5) % of control
II-ADP, % of control (O2 consumption rate) ([14]; 0.8 µM): 67 (59.7) % of control
II-sub, % of control (O2 consumption rate) ([14]; 0.8 µM): 247 (66.9) % of control
I-ADP, % of control (O2 consumption rate) ([14]; 4 µM): 74 (36.5) % of control
I-sub, % of control (O2 consumption rate) ([14]; 4 µM): 264 (36.5) % of control
II-ADP, % of control (O2 consumption rate) ([14]; 4 µM): 44 (39.6) % of control
II-sub, % of control (O2 consumption rate) ([14]; 4 µM): 189 (51.0) % of control
I-ADP, % of control (O2 consumption rate) ([14]; 20 µM): 73 (36.0) % of control
I-sub, % of control (O2 consumption rate) ([14]; 20 µM): 278 (38.5) % of control
II-ADP, % of control (O2 consumption rate) ([14]; 20 µM): 39 (34.6) % of control
II-sub, % of control (O2 consumption rate) ([14]; 20 µM): 165 (44.6) % of control
I-ADP, % of control (O2 consumption rate) ([14]; 100 µM): 86 (39.1) % of control
I-sub, % of control (O2 consumption rate) ([14]; 100 µM): 263 (40.0) % of control
II-ADP, % of control (O2 consumption rate) ([14]; 100 µM): 38 (27.2) % of control
II-sub, % of control (O2 consumption rate) ([14]; 100 µM): 98 (30.8) % of control
